Measured values as given in ChEMBL document CHEMBL5532726, “Somatostatin Receptor Subtype 4 Agonists for Potential Treatment of Alzheimer's Disease and Other Central Nervous System Disorders” (ACS Med Chem Lett, 2024).
pIC50: −log10 of the molar value.

Molecular target: Somatostatin receptor type 1 (Homo sapiens, UniProt P30872)
Sequence (P30872 whole entry): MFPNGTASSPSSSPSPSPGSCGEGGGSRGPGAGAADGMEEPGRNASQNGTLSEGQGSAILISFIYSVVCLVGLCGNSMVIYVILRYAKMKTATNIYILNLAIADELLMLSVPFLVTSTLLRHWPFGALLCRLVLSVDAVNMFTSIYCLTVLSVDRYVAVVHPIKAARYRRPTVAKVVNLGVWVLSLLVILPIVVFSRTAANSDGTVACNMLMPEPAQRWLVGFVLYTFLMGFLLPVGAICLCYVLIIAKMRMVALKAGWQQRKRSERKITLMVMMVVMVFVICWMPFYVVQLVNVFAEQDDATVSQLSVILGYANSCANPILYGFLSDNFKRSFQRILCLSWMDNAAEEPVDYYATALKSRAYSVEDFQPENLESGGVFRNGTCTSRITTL

**Q.** CC(Oc1ccccc1C1CC1)C(=O)N[C@H]1CCNC[C@@H]1F (stereo partly specified) was tested. Which pIC50 did it give?
**A.** Its pIC50 is under 4.30.
